Experiments:
Estrogen receptor alpha = target: T1, Estrogen receptor alpha (Homo sapiens, UniProt P03372); assay: ERa-anti CALUX; format: cell-based; conditions: 24 h exposure, lowest effect level PC20, reference agonist at EC50, means from 3 assay runs
T1 construct: host or cells: U-2 OS
Protocol: (§1) After 24 h, exposure medium was prepared. […] All samples were tested in triplicates. […] Fig. SM_4. […] Fig. SM_4.
Cell line Endpoint effect Reference compound […]
ERa-anti CALUX Estrogen receptor antagonists PC20 tamoxifen […]
Cytotox CALUX Cytoxicity PC20 tributyltinacetate
(§2) Supplementary Material SM_4
(§3) Overview of CALUX assays.
(§4) This is defined as the concentration of test compound […]
(§5) for an antagonist assay is a PC20.
(§6) PC = positive control. FI = fold induction. PC10: concentration where test compound causes an activation equal to 10% of the maximum effect (positive control). PC20: concentration where test compound causes […]
(§7) FI=1.5: concentration where test
(§8) (A) exemplary graph of concentration- […]
(§9) receptor antagonism assay with PC20 as lowest-effect-level. (C) exemplary graph for assay with 1.5 fold inductionas lowest effect level. 9

Androgen receptor = target: T2, Androgen receptor (Homo sapiens, UniProt P10275); format: cell-based; conditions: 24 h exposure, lowest effect level PC20, reference agonist at EC50, means from 3 assay runs
T2 construct: host or cells: U-2 OS
T2 sequence (P10275 1-920): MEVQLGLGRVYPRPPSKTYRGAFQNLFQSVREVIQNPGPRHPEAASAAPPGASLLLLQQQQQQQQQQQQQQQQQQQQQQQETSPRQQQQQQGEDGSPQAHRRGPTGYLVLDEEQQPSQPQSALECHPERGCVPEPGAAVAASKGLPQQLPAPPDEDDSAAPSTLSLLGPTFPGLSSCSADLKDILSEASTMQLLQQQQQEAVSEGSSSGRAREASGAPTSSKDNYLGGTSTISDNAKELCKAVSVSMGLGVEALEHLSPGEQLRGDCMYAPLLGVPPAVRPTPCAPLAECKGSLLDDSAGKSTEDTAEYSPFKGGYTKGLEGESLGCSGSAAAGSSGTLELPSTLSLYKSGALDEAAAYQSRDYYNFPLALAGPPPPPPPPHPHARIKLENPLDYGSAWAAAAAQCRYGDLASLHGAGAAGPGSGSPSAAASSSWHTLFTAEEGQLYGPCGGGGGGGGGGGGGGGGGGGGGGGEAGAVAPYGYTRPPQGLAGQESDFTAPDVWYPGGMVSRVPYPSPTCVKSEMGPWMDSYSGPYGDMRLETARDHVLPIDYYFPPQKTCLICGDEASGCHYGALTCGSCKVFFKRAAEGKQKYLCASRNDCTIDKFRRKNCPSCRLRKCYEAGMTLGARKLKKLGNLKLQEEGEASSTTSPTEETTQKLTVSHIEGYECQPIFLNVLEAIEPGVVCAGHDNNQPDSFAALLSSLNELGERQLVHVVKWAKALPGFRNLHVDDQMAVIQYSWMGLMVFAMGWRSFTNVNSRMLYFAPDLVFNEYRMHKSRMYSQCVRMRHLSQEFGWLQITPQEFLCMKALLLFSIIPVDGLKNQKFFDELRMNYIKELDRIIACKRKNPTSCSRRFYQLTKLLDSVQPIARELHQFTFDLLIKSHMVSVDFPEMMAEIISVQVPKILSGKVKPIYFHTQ
Protocol: as §1, §2, §3, §4, §5, §6, §7, §8, §9

Progesterone receptor = target: T3, Progesterone receptor (Homo sapiens, UniProt P06401); assay: PR-anti CALUX; format: cell-based; conditions: 24 h exposure, lowest effect level PC20, reference agonist at EC50, means from 3 assay runs
T3 construct: host or cells: U-2 OS
T3 sequence (P06401 1-933): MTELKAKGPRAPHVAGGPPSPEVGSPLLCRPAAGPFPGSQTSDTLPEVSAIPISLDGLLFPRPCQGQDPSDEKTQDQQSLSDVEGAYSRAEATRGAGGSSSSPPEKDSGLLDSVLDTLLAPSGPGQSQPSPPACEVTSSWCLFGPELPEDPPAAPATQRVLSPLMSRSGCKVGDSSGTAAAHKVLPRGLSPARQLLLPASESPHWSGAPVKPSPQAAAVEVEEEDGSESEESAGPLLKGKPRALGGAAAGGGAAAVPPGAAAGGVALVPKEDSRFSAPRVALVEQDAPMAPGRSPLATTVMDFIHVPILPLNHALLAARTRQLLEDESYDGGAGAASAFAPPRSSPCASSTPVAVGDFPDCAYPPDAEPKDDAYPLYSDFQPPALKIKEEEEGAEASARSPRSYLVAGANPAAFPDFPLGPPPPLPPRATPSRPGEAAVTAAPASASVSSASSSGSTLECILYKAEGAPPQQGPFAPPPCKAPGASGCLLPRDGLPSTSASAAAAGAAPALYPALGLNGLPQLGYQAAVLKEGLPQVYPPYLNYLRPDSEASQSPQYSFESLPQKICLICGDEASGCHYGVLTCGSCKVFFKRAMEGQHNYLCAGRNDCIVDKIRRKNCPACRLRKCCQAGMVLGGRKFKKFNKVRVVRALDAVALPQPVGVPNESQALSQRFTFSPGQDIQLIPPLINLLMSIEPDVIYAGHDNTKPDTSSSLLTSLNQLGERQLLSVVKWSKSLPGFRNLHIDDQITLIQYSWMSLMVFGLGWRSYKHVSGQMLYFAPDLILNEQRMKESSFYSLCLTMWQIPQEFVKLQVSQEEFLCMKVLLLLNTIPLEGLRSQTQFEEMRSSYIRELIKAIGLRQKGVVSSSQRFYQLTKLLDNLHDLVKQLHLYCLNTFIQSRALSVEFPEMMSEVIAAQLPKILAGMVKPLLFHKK
Protocol: as §1, §2, §3, §4, §5, §6, §7, §8, §9

Pregnane X receptor = target: T4, Pregnane X receptor (Homo sapiens, UniProt O75469); assay: PXR CALUX; format: cell-based; conditions: 24 h exposure, lowest effect level PC10, means from 3 assay runs
T4 construct: host or cells: U-2 OS
T4 sequence (O75469 1-434): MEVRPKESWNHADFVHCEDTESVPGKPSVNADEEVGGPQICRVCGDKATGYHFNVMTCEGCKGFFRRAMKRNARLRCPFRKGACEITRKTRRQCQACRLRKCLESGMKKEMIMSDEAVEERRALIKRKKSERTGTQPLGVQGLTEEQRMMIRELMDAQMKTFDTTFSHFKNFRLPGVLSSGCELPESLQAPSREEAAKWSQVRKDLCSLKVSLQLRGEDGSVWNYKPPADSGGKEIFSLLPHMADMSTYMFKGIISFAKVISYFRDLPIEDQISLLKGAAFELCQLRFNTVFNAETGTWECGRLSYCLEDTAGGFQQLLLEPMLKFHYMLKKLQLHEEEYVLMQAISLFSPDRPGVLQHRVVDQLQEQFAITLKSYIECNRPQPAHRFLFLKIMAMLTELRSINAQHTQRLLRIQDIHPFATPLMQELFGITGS
Protocol: as §1, §2, §3, §4, §5, §6, §7, §8, §9

[1] = set-up: method as in Nyffeler et al. 2018; conditions: cell culture plastic; ref Nyffeler et al. 2018; cited from earlier work
[2] = tested on: U-2 OS reporter cell lines battery; assay: CALUX reporter gene assay battery as a whole; conditions: all CALUX assays, 13 concentrations, 24 h exposure

T1 sequence (P03372 whole entry): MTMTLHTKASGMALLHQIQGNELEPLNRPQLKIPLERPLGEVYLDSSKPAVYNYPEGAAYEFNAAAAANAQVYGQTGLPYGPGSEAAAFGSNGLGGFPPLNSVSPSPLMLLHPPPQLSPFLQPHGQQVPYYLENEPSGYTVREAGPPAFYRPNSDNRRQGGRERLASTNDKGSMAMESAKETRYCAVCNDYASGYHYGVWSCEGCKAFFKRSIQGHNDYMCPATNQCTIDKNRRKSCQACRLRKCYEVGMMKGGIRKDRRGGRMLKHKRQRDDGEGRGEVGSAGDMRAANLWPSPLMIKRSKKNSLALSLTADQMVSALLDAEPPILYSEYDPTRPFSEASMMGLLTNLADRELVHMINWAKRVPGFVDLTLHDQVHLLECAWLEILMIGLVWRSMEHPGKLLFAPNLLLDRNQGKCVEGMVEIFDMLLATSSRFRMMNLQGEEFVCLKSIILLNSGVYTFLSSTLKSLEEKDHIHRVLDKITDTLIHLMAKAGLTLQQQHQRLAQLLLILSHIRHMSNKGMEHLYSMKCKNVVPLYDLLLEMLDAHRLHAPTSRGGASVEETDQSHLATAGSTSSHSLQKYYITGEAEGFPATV

Clc1cc(Cl)c(-c2cc(Cl)c(Cl)c(Cl)c2Cl)cc1Cl [PCB180, polychlorinated biphenyl 180]
PoD Erα - anta (Estrogen receptor alpha): 6.0 -log(M) | PoD AR - anta (Androgen receptor): 6.1 -log(M) | PoD PR - anta (Progesterone receptor): 6.3 -log(M) | PoD PXR - ago (Pregnane X receptor): 5.5 -log(M) | fraction of the compound bound to plastic [1]: about one third | response profile over the CALUX battery (in words) [2]: only activated nuclear hormone receptor related assays

From article PMC7367925, “The EU-ToxRisk method documentation, data processing and chemical testing pipeline for the regulatory use of new approach methods” (Archives of Toxicology, 2020)
